Consider 39 compounds from patent US9868734B2, “Conjugate of benzofuranone and indole or azaindole, and preparation and uses thereof” (Luoda Biosciences, Inc., priority 2013, dated 2018).

Assay [1] has as its system human lung adenocarcinoma epithelial cell line A549. Nature of the assay: MTT assay, inhibition of tumor cell growth (A549). It counts as cell-based. The conditions noted are these: 72 hours incubation, read-out: IC50 on the tumor cells A549. Here is the method:
(§1) human hepatocellular carcinoma cell line HepG-2, human lung adenocarcinoma epithelial cell line A549
(§2) Tumor cells were seeded in RPM11640 medium containing 10% calf serum, incubated at 37° C., 5% CO2 in CO2 incubator, and passaged every 2-3 days. Cells at logarithmic growth phase were used for this experiment.
(§3) The cells at logarithmic growth phase were formulated into suspension. The cell viability by trypan blue staining was more than 98%. The cell suspension was divided into several groups: 1 as blank control group (cell suspension plus solvent DMSO); and 2 as experimental groups (cell suspension plus compounds to be tested).
(§4) The drugs were formulated into a stock solution in DMSO, and the concentration of the stock solution was 20 mmol (used within 4 hours). In the experiment, the work solution of the drugs was diluted with RPMI1640 medium containing 10% calf serum under aseptic condition, to a final concentration of […]. The drug concentrations were increased by 2 times (1.25-20 μM).
(§5) The cells in logarithmic growth phase were selected, centrifuged, counted, and formulated into a cell suspension (2.5×10^4/ml) with RPMI1640 medium containing 10% calf serum. The cell suspension were inoculated into 96-well plates at a density of 5000 cells/200 μl per well, incubated for 24 hours at 37° C., 5% CO2. According to the above concentration of the drug, the cells were inoculated to 6 groups (including one control group), with 8 wells per group. After incubating for 72 hours, the viability of cells was measured by MTT assay. The absorbance value (A) was measured with detection wavelength at 540 nm, reference wavelength at 630 nm. The inhibitory rate (I) was calculated by the following equation, where T was the absorbance value of the experimental groups, and C was the absorbance value of the blank control group: I=(1−T/C)×100%
(§6) Equation of regression line was drawn from concentration-inhibitory rate curve, from which the IC50 of tested sample was calculated.

Assay [2] relates to human hepatocellular carcinoma cell line HepG-2. Nature of the assay: MTT assay, inhibition of tumor cell growth (HepG2). The conditions noted are these: 72 hours incubation, read-out: IC50 on the tumor cells HepG2. It counts as cell-based. Here is the method:
as §1, §2, §3, §4, §5, §6

Read-outs that look alike come from different tables or passages of the source.

Consider `O=C1C(=C2Oc3ccccc3C2=NO)c2cc(F)ccc2N1Cc1ccccc1` [Compound 39], for which the values for the half-maximal inhibitory concentration (IC50) in assay [1] and in assay [2] were 33 ± 2.9 µM and 19 ± 2.1 µM, respectively.
For `CN1C(=O)C(=C2C(=O)Oc3ccccc32)c2cnccc21` [Compound 123], the 50% inhibitory concentration (IC50) in assay [1] is 5.8 ± 0.8 µM; in assay [2], 9.1 ± 1 µM.
Regarding `CCN1C(=O)C(=C2Oc3ccc(Cl)cc3C2=O)c2ccccc21` [Compound 19], the concentration for half-maximal inhibition (IC50) in assay [1] is 16 ± 1.5 µM; in assay [2], 8 ± 1.5 µM.
Turning to `CCN1C(=O)C(=C2Oc3ccccc3C2=O)c2ccccc21` [Compound 3], the IC50 in assay [1] stood at 21.9 ± 0.9 µM; in assay [2], 26.4 ± 1.1 µM.
As to `O=C1Nc2ccc(F)cc2C1=C1C(=O)Oc2ccccc21` [Compound 92], the IC50 came out at 31.7 ± 1.5 µM in assay [1] and 15.2 ± 1.2 µM in assay [2].
Regarding `CCN1C(=O)C(=C2Oc3ccccc3C2=NO)c2cc(F)ccc21` [Compound 42], the IC50 was determined as 15 ± 1.2 µM in assay [1] and 28 ± 2.5 µM in assay [2].
For `CCN1C(=O)C(=C2Oc3ccccc3C2=NO)c2cc(C)ccc21` [Compound 31], the figures for the IC50 in assay [1] and in assay [2] were 1.2 ± 0.8 µM and 2.8 ± 0.4 µM, respectively.
In the case of `CCN1C(=O)C(=C2C(=O)Oc3ccccc32)c2cnccc21` [Compound 127, N-ethyl-1′-oxo-5-azaisoindigo], the IC50 was determined as 4.7 ± 0.9 µM in assay [1] and 8.4 ± 1.3 µM in assay [2].
Turning to `O=C1Nc2ncccc2/C1=C1/Oc2ccccc2C1=O` [Compound 75, 1′-oxo-7-azaindirubin], the concentration for half-maximal inhibition (IC50) in assay [1] (Homo sapiens) was determined as 8 ± 1.2 µM; in assay [2] (Homo sapiens), 10 ± 1.4 µM.
In the case of `Cc1ccc2c(c1)C(=C1Oc3ccccc3C1=NO)C(=O)N2Cc1ccccc1` [Compound 41], the concentration for half-maximal inhibition (IC50) in assay [1] came to 8.3 ± 1.7 µM; in assay [2], 45 ± 3 µM.
Turning to `CCN1C(=O)C(=C2Oc3ccc(Cl)cc3C2=NO)c2ccccc21` [Compound 43], the IC50 in assay [1] worked out at 14 ± 1.7 µM; in assay [2] it was 42 ± 4.2 µM.
On the same counts, the results for `CON=C1C(=C2C(=O)Nc3c(F)cccc32)Oc2ccccc21` [Compound 50] are 7.7 ± 1.2 µM and 2.9 ± 0.5 µM.
For the compound `O=C1C(=C2Oc3ccccc3C2=NO)c2ccccc2N1C1OC(CO)C(O)C1O` (stereo not drawn) [Compound 33], the half-maximal inhibitory concentration (IC50) was found to be 14.8 ± 1.2 µM in assay [1] and 21 ± 0.9 µM in assay [2].
On the same counts, the results for `O=C1Nc2c(F)cccc2C1=C1Oc2ccccc2C1=NO` [Compound 26] are 5.4 ± 0.6 µM and 29 ± 1.8 µM.
For the compound `CC(C)N1C(=O)C(=C2Oc3ccccc3C2=O)c2ccccc21` [Compound 8], the half-maximal inhibitory concentration (IC50) in assay [1] turned out to be 10 ± 1.4 µM; in assay [2], 32.2 ± 2.4 µM.
On to `CN1C(=O)C(=C2C(=O)Oc3ccccc32)c2ccc(Cl)cc21` [Compound 96], for which the values for the IC50 in assay [1] and in assay [2] were 17.2 ± 1.6 µM and 14.2 ± 1.3 µM, respectively.
Consider `CCN1C(=O)C(=C2Oc3ccccc3C2=O)c2c1ccnc2C` [Compound 65], for which the IC50 in assay [1] stood at 18.5 ± 1.8 µM; in assay [2], 40 ± 3.1 µM.
As to `CON=C1C(=C2C(=O)Nc3ccccc32)Oc2ccccc21` [Compound 49], the IC50 in assay [1] is 9.5 ± 0.6 µM; in assay [2] it was 4.8 ± 0.7 µM.
As to `CC(C)N1C(=O)C(=C2Oc3ccccc3C2=NO)c2cc(Cl)ccc21` [Compound 47], the concentration for half-maximal inhibition (IC50) stood at 1.7 ± 0.8 µM in assay [1] and 1.6 ± 0.8 µM in assay [2].
As for `CCN1C(=O)C(=C2Oc3ccccc3C2=NO)c2cccc(F)c21` [Compound 28], the concentration for half-maximal inhibition (IC50) in assay [1] stood at 7 ± 1.3 µM; in assay [2] it was 30 ± 1.5 µM.
For the compound `CCN1C(=O)C(=C2C(=O)Oc3ccccc32)c2ccccc21` [Compound 100], the figures for the IC50 in assay [1] and in assay [2] were 7 ± 1.4 µM and 9.2 ± 2 µM, respectively.
In the case of `CC(C)N1C(=O)C(=C2Oc3ccccc3C2=O)c2cc(F)ccc21` [Compound 9], the concentration for half-maximal inhibition (IC50) in assay [1] came out at 18.5 ± 1.8 µM; in assay [2], 25 ± 1 µM.
For the compound `CON=C1C(=C2C(=O)N(C(C)C)c3cc(Cl)ccc32)Oc2ccc(Cl)cc21` [Compound 60], the 50% inhibitory concentration (IC50) is 29 ± 1.8 µM in assay [1] and 5.4 ± 0.6 µM in assay [2].
Regarding `CCN1C(=O)C(=C2Oc3ccccc3C2=NOC)c2cc(F)ccc21` [Compound 59], the IC50 in assay [1] was 5 ± 0.9 µM; in assay [2], 3.7 ± 0.9 µM.
As for `CCN1C(=O)C(=C2Oc3ccc(Cl)cc3C2=NO)c2ccc(Cl)cc21` [Compound 46], the IC50 in assay [1] was 3.4 ± 0.7 µM; in assay [2], 3.8 ± 0.5 µM.
On the same counts, the results for `CON=C1C(=C2C(=O)N(C(C)C)c3ccc(C)cc32)Oc2ccccc21` [Compound 55] are 12 ± 1.9 µM and 4 ± 2.4 µM.
As to `O=C1C(=C2Oc3ccccc3C2=NO)c2cc(Cl)ccc2N1Cc1ccccc1` [Compound 40], the figures for the IC50 in assay [1] and in assay [2] were 14 ± 1.2 µM and more than 100 µM, respectively.
In the same order, the values of `CCN1C(=O)C(=C2Oc3ccc(Cl)cc3C2=O)c2cccc(F)c21` [Compound 20] are 1.8 ± 1 µM and 12 ± 1.4 µM.
In the same order, the values of `CC(C)N1C(=O)C(=C2C(=O)Oc3ccccc32)c2ccccc21` [Compound 106] are 35.5 ± 2.9 µM and 3.8 ± 1.5 µM.
For `CCN1C(=O)C(=C2Oc3ccccc3C2=NO)c2cc(Cl)ccc21` [Compound 29], the results for the concentration for half-maximal inhibition (IC50) in assay [1] and in assay [2] were 3.6 ± 0.2 µM and 7.7 ± 1.2 µM, respectively.
Take `O=C1Oc2ccccc2C1=C1C(=O)N(C2OC(CO)C(O)C(O)C2O)c2ccccc21` (stereo not drawn) [Compound 112]: the IC50 in assay [1] was 90.1 ± 4.5 µM; in assay [2], more than 100 µM.
With `O=C1C(=C2C(=O)N(Cc3ccccc3)c3ccc(F)cc32)Oc2ccccc21` [Compound 15], the half-maximal inhibitory concentration (IC50) in assay [1] was determined as 7.4 ± 1.7 µM; in assay [2] it was 34 ± 0.9 µM.
As for `Cc1ccc2c(c1)C(=C1Oc3ccccc3C1=O)C(=O)N2Cc1ccccc1` [Compound 17], the half-inhibitory concentration (IC50) in assay [1] was determined as 8 ± 2.3 µM; in assay [2], 25 ± 2.7 µM.
Regarding `O=C1Oc2ccccc2C1=C1C(=O)N(Cc2ccccc2)c2ncccc21` [Compound 152], the IC50 in assay [1] came to 18.2 ± 1.2 µM; in assay [2], 42.3 ± 1.8 µM.
Regarding `Cc1ccc2c(c1)C(=C1Oc3ccccc3C1=O)C(=O)N2C(C)C` [Compound 13], the 50% inhibitory concentration (IC50) turned out to be 11 ± 1.2 µM in assay [1] and 42 ± 1.8 µM in assay [2].
For `O=C1Oc2ccccc2C1=C1C(=O)N(Cc2ccccc2)c2cc(Cl)ccc21` [Compound 120], the IC50 was determined as 49.1 ± 2.6 µM in assay [1] and 43 ± 2.2 µM in assay [2].
Take `CCN1C(=O)C(=C2C(=O)Oc3ccccc32)c2cc(F)cnc21` [Compound 146]: the half-inhibitory concentration (IC50) came out at 26.3 ± 2.1 µM in assay [1] and 35.2 ± 2.3 µM in assay [2].
On to `CCN1C(=O)C(=C2Oc3c(Cl)cccc3C2=O)c2cccnc21` [Compound 85], for which the IC50 in assay [1] stood at 25 ± 2.7 µM; in assay [2], 18.5 ± 1.5 µM.
Consider `CC(C)N1C(=O)C(=C2Oc3ccccc3C2=NO)c2cc(Cl)cnc21` [Compound 88], for which the IC50 in assay [1] came to 87 ± 2.1 µM; in assay [2] it was 80.1 ± 1.5 µM.
